Test systems include HL-60; NCI-H460; NCI-H23; T47D; MDA-MB-435; OVCAR-5; EKVX; DU-145; RPMI-8226; MCF7; OVCAR-3; ACHN; NCI/ADR-RES; LOX IMVI; HCC 2998; SK-MEL-5; TK-10; MDA-MB-231; SNB-19.
Common to all, as to experiment: NCI-60 cell line screen, 48 h

The text below walks through data of ChEMBL document CHEMBL1201862, “PubChem BioAssay data set” (2004).

“And” between values parts separate entries of the source, which are not always exact repeats. Identical values can stand only once.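 Five compound concentrations were applied to cells in 96-well plates for 48 hours; endpoints were derived by simple linear interpolation of the resulting dose-response curve. Abbreviation: GI50, concentration required for 50% inhibition of growth.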 The source made the active and inactive calls. Cut-off read from the data, not from the text of the source: active = GI50 up to about 1.1 µM and inactive = higher. Non-standard residues stand in square brackets, D forms with d. Residues, ends and D or L forms follow the SMILES beside them. *: point of attachment. Bn2Val = CC(C)[C@@H](C(=O)*)N(Cc1ccccc1)Cc1ccccc1; NMeV = CN[C@H](C(=O)O)C(C)C; X32 = COc1ccc(CN*)c(OC)c1; dNMeA = CN[C@H](C)C(=O)O

As for `CCOc1cc(/C=C2\N=C(c3ccccc3)N(c3nc4ccccc4s3)C2=O)ccc1O`, the GI50 with HL-60 was 27.9 µM (inactive); with NCI-H460, 29.2 µM (inactive); in the test on NCI-H23, 21.7 µM (inactive); in the test on T47D it was 40.6 µM (inactive); in the test on MDA-MB-435, 40.1 µM (inactive); in the test with OVCAR-5 it was > 100 µM (inactive). In addition, the GI50 in the test on EKVX is > 100 µM (inactive); with DU-145, 45.1 µM (inactive); with RPMI-8226, 21.6 µM (inactive); with MCF7, 33.3 µM (inactive); in the test on OVCAR-3, 46.8 µM (inactive); in the test on ACHN, 37.3 µM (inactive). Moreover, the GI50 is 24.3 µM (inactive) in the test on NCI/ADR-RES; 37.2 µM (inactive) in the test with LOX IMVI; 25.1 µM (inactive) in the test with HCC 2998; 18.5 µM (inactive) in the test on SK-MEL-5; 56.9 µM (inactive) with TK-10; > 100 µM (inactive) in the test on MDA-MB-231.

For the compound `COC(=O)c1ccc(Oc2nc3ccc(C(F)(F)F)cc3nc2-c2ccccc2)cc1`, the GI50 is > 100 µM (inactive) in the test on HL-60; 83.2 µM (inactive) in the test with NCI-H460; > 100 µM (inactive) in the test with NCI-H23; 56.2 µM (inactive) in the test on T47D; > 100 µM (inactive) with MDA-MB-435; > 100 µM (inactive) in the test with OVCAR-5. Besides, the GI50 was 55.5 µM (inactive) with EKVX; > 100 µM (inactive) with DU-145; 62.8 µM (inactive) in the test with RPMI-8226; 24.9 µM (inactive) in the test with MCF7; > 100 µM (inactive) in the test on OVCAR-3; 56.9 µM (inactive) with ACHN. Further, the GI50 with NCI/ADR-RES, in the test with LOX IMVI, in the test on HCC 2998, in the test on SK-MEL-5, in the test on TK-10 and with MDA-MB-231 was > 100 µM (inactive) in each case.

For the compound `COc1ccc(-c2c(C#N)c(N)n(C3OCC(OC(C)=O)C(OC(C)=O)C3OC(C)=O)c(=S)c2C#N)cc1` (stereo not drawn), the GI50 in the test on HL-60 is 17.4 µM (inactive) and 15.2 µM (inactive); with NCI-H460 it was 44.1 µM (inactive) and 36.4 µM (inactive); with NCI-H23, > 100 µM (inactive); with T47D, 14.8 µM (inactive) and 26.7 µM (inactive); with MDA-MB-435, 25.3 µM (inactive) and 35.7 µM (inactive); with SNB-19 it was > 100 µM (inactive). Moreover, the GI50 in the test with OVCAR-5 is 45.7 µM (inactive) and 43.8 µM (inactive); with EKVX it was 34.7 µM (inactive) and 22.6 µM (inactive); in the test with DU-145, 64.4 µM (inactive) and 60.1 µM (inactive); in the test on RPMI-8226, 25.9 µM (inactive) and 26.4 µM (inactive); with MCF7, 27.5 µM (inactive) and 49.3 µM (inactive); in the test with OVCAR-3 it was 31.8 µM (inactive) and 23.4 µM (inactive). The GI50 is 48.9 µM (inactive) and 40.6 µM (inactive) in the test with ACHN; > 100 µM (inactive) in the test on NCI/ADR-RES; 30 µM (inactive) and 34 µM (inactive) in the test on LOX IMVI; 37.8 µM (inactive) and 26.6 µM (inactive) in the test with HCC 2998; 34.8 µM (inactive) in the test on SK-MEL-5; 41.7 µM (inactive) and 33 µM (inactive) with MDA-MB-231.

For `CCc1c(Cc2cccc3ccccc23)n2c(nc1=O)SCC2OCCO` (stereo not drawn), the GI50 in the test with HL-60 is 36.9 µM (inactive); in the test on NCI-H460 it was > 100 µM (inactive); in the test with NCI-H23, 42.8 µM (inactive); in the test with T47D, 31 µM (inactive); with MDA-MB-435 it was 18.2 µM (inactive); in the test with SNB-19, > 100 µM (inactive). Also, the GI50 in the test with OVCAR-5 is > 100 µM (inactive); in the test on EKVX it was 33.7 µM (inactive); with DU-145, 88.3 µM (inactive); in the test with RPMI-8226, 25.7 µM (inactive); in the test on MCF7, 50.5 µM (inactive); in the test on ACHN it was > 100 µM (inactive). Besides, the GI50 with NCI/ADR-RES is 81.5 µM (inactive); in the test with LOX IMVI, 79.3 µM (inactive); in the test with HCC 2998, 64.1 µM (inactive); with SK-MEL-5, 95.5 µM (inactive); in the test with TK-10, > 100 µM (inactive); in the test on MDA-MB-231 it was > 100 µM (inactive).

On to `C[C@@H](c1ccccc1)N(CC#N)[C@H]1CCC[C@]1(O)/C=C/c1ccc2c(c1)OCO2`, for which the GI50 in the test with HL-60, in the test on NCI-H460, with NCI-H23, with T47D, in the test on MDA-MB-435 and in the test with SNB-19 was > 25 µM (inactive) throughout. The GI50 with OVCAR-5 was > 25 µM (inactive); in the test with EKVX, > 25 µM (inactive); in the test with DU-145, > 25 µM (inactive); with RPMI-8226, > 25 µM (inactive); in the test with MCF7, 5.65 µM (inactive); with ACHN it was 4.31 µM (inactive). The GI50 with NCI/ADR-RES, in the test with LOX IMVI, in the test with HCC 2998, in the test on SK-MEL-5, with TK-10 and in the test on MDA-MB-231 was > 25 µM (inactive) each time.

Take `Cc1n[nH]c(=O)n1C1CC1`: the GI50 in the test with HL-60, with NCI-H460, with NCI-H23, in the test on T47D, with MDA-MB-435 and in the test with SNB-19 was > 100 µM (inactive) in each case. In addition, the GI50 in the test with OVCAR-5, in the test on EKVX, in the test on DU-145, with RPMI-8226, in the test with MCF7 and with OVCAR-3 was > 100 µM (inactive) in each case. The GI50 with ACHN, with NCI/ADR-RES, with LOX IMVI, with HCC 2998, with SK-MEL-5 and in the test on MDA-MB-231 was > 100 µM (inactive) each time.

For `Cc1ccnc2c1ccc1nc3ccccc3n12`, the GI50 with HL-60 was 85.3 µM (inactive); in the test with NCI-H460 it was 45.6 µM (inactive); in the test with NCI-H23 it was > 100 µM (inactive); in the test on T47D, 18.5 µM (inactive); in the test with MDA-MB-435, > 100 µM (inactive); with OVCAR-5 it was > 100 µM (inactive). Besides, the GI50 in the test on EKVX is 1.88 µM (inactive); in the test on DU-145 it was > 100 µM (inactive); in the test with RPMI-8226 it was > 100 µM (inactive); with MCF7, 4.45 µM (inactive); with OVCAR-3, > 100 µM (inactive); with NCI/ADR-RES, 37.8 µM (inactive). For the same compound, the GI50 with LOX IMVI is > 100 µM (inactive); with HCC 2998, > 100 µM (inactive); in the test with SK-MEL-5, 17.7 µM (inactive); with TK-10, > 100 µM (inactive); in the test on MDA-MB-231, 54.7 µM (inactive).

With `COc1ccc(CNC(=O)[C@@H]2CCCN2C(=O)[C@@H](C)N(C)C(=O)[C@H](C(C)C)N(C)C(=O)[C@@H](NC(=O)[C@H](C(C)C)N(Cc2ccccc2)Cc2ccccc2)C(C)C)c(OC)c1` (Bn2Val-V[NMeV][dNMeA]P-X32), the GI50 with HL-60 is 0.0561 µM (active); with NCI-H460, 3.52 µM (inactive); with NCI-H23, 2.94 µM (inactive); in the test on T47D it was 10.6 µM (inactive); with MDA-MB-435, 2.61 µM (inactive); in the test with SNB-19, 3.4 µM (inactive). Further, the GI50 with OVCAR-5 is 1.59 µM (inactive); in the test with EKVX it was 2.69 µM (inactive); in the test with DU-145 it was 6.15 µM (inactive); in the test with RPMI-8226, 2.67 µM (inactive); in the test with MCF7, 3.19 µM (inactive); in the test with OVCAR-3 it was 3.63 µM (inactive). The GI50 is 3.75 µM (inactive) with ACHN; 2.97 µM (inactive) with NCI/ADR-RES; 2.84 µM (inactive) in the test with LOX IMVI; 2.33 µM (inactive) with HCC 2998; 4.47 µM (inactive) with TK-10; 1.51 µM (inactive) with MDA-MB-231.
